Results: patent EP3875456A1, “HETERO-BIFUNCTIONAL PROTEOLYSIS-TARGETING CHIMERAS (PROTACS) FOR THE SELECTIVE DEGRADATION OF FK506-BINDING PROTEINS (FKBPS)” (Technische Universität Darmstadt, priority 2020, dated 2021)

Key:
[1] = target: T1, FKBP51FK1 (Homo sapiens, UniProt Q13451); assay: Binding affinities of exemplary compounds to FKBP51
T1 construct: FKBP51FK1
T1 sequence (Q13451 42-130 limits assumed): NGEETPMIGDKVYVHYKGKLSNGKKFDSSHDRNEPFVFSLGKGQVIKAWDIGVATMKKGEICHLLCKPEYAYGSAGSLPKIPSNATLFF
Method: Binding to FKBP51 is an important prerequisite in order to allow degradation of FKBP51. Thus, the binding affinities of the newly synthesized molecules (table 1) were tested.

[2] = target: T2, FKBP51 (Homo sapiens, UniProt Q13451); assay: Degradation of FKBP51 in HEK293T cells (Western blot); assay type: cell-based; design: Upper blot: Endogeneous FKBP51; endogenous in cells; conditions: 48 h incubation, endogeneous FKBP51, Western Blot, GAPDH control
T2 sequence (Q13451 1-457): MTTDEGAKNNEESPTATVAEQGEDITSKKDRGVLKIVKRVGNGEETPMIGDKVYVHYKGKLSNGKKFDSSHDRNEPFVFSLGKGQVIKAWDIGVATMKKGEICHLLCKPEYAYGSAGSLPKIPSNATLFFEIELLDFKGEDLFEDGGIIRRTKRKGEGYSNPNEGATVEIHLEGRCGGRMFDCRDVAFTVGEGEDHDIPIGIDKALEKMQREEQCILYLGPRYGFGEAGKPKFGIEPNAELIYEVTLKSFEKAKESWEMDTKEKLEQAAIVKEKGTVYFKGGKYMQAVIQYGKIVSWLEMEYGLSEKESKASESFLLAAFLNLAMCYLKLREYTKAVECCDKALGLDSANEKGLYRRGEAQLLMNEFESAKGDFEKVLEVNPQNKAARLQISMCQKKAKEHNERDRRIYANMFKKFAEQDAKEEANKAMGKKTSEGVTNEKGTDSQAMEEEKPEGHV
Method: (§1) HEK293T cells were incubated with the PROTAC MTQ202. 35,000 cells per well in a 24 well format. Figure 3-Upper blot: Endogeneous FKBP51. Figure 3-Lower blot: GAPDH. Cells were treated with the compound for 48 h before lysis. All samples have been exposed to a constant DMSO concentration. Lysate protein concentration was quantified via BCA assay and normalized with Lämmli buffer. Equal amounts of total protein were subjected to SDS-Page and Western Blot afterwards.

[3] = target: T2, FKBP51; assay: Degradation of FKBP51 in HeLa cells (Western blot); assay type: cell-based; design: Upper blot: Endogeneous FKBP51; endogenous in cells; host or cells: HeLa; conditions: 24 h incubation, endogeneous FKBP51, Western Blot, GAPDH control
Method: as §1, with “HeLa” for “HEK293T”, “2 - Upper” for “3-Upper”, “2 - Lower” for “3-Lower”, “24” for “48”

Ki [1] [nM]	Degradation of FKBP51 [2]	Degradation of FKBP51 [3]	Compound
23 ± 7	–	–	COc1ccc(CC[C@H](OC(=O)[C@H]2CCCCN2C(=O)[C@H](c2cc(OC)c(OC)c(OC)c2)C2CCCCC2)c2cccc(OCc3cn(CCOCCOCCOCC(=O)N[C@H](C(=O)N4C[C@H](O)C[C@H]4C(=O)NCc4ccc(-c5scnc5C)cc4)C(C)(C)C)nn3)c2)cc1OC [MTQ201, (S)-(R)-3-(3,4-Dimethoxyphenyl)-1-(3-((1-((S)-13-((2S,4R)-4-hydroxy-2-((4-(4-methylthiazol-5-yl)benzyl)carbamoyl)pyrrolidine-1-carbonyl)-14,14-dimethyl-11-oxo-3,6,9-trioxa-12-azapentadecyl)-1H-1,2,3-triazol-4-yl)methoxy)phenyl)propyl 1-((S)-2-cyclohexyl-2-(3,4,5-trimethoxyphenyl)acetyl)piperidine-2-carboxylate]
24 ± 8	clearly visible, but not complete	clearly visible, but not complete	COc1ccc(CC[C@H](OC(=O)[C@H]2CCCCN2C(=O)[C@H](c2cc(OC)c(OC)c(OC)c2)C2CCCCC2)c2cccc(OCc3cn(CCOCCOCCOCCOCC(=O)N[C@H](C(=O)N4C[C@H](O)C[C@H]4C(=O)NCc4ccc(-c5scnc5C)cc4)C(C)(C)C)nn3)c2)cc1OC (stereo in doubt) [MTQ202, (S)-(R)-3-(3,4-Dimethoxyphenyl)-1-(3-((1-((S)-16-((2S,4R)-4-hydroxy-2-((4-(4-methylthiazol-5-yl)benzyl)carbamoyl)pyrrolidine-1-carbonyl)-17,17-dimethyl-14-oxo-3,6,9,12-tetraoxa-15-azaoctadecyl)-1H-1,2,3-triazol-4-yl)methoxy)phenyl)propyl 1-((S)-2-cyclohexyl-2-(3,4,5-trimethoxyphenyl)acetyl)piperidine-2-carboxylate]
16 ± 5	–	–	COc1ccc(CC[C@@H](OC(=O)[C@@H]2CCCCN2C(=O)[C@H](c2cc(OC)c(OC)c(OC)c2)C2CCCCC2)c2cccc(OCc3cn(CCOCCOCC(=O)Nc4cccc5c4C(=O)N(C4CCC(=O)NC4=O)C5=O)nn3)c2)cc1OC (stereo partly drawn) [MTQ205, (2S)-(1R)-3-(3,4-Dimethoxyphenyl)-1-(3-((1-(2-(2-(2-((2-(2,6-dioxopiperidin-3-yl)-1,3-dioxoisoindolin-4-yl)amino)-2-oxoethoxy)ethoxy)ethyl)-1H-1,2,3-triazol-4-yl)methoxy)phenyl)propyl 1-((S)-2-cyclohexyl-2-(3,4,5-trimethoxyphenyl)acetyl)piperidine-2-carboxylate]
5 ± 1	–	–	COc1ccc(CC[C@@H](OC(=O)[C@@H]2CCCCN2C(=O)[C@H](c2cc(OC)c(OC)c(OC)c2)C2CCCCC2)c2cccc(OCc3cn(CCOCCOCCOCCOCCOCC(=O)Nc4cccc5c4C(=O)N(C4CCC(=O)NC4=O)C5=O)nn3)c2)cc1OC (stereo partly drawn) [MTQ208, (2S)-(1R)-3-(3,4-Dimethoxyphenyl)-1-(3-((1-(17-((2-(2,6-dioxopiperidin-3-yl)-1,3-dioxoisoindolin-4-yl)amino)-17-oxo-3,6,9,12,15-pentaoxaheptadecyl)-1H-1,2,3-triazol-4-yl)methoxy)phenyl)propyl 1-((S)-2-cyclohexyl-2-(3,4,5-trimethoxyphenyl)acetyl)piperidine-2-carboxylate]

Compound	Ki [1] [nM]	Degradation of FKBP51 [2]	Degradation of FKBP51 [3]
COc1cccc([C@@H](CCc2ccc(OCc3cn(CCOCCOCCOCCOCC(=O)N[C@H](C(=O)N4C[C@H](O)C[C@H]4C(=O)NCc4ccc(-c5scnc5C)cc4)C(C)(C)C)nn3)c(OC)c2)OC(=O)[C@@H]2CCCCN2C(=O)[C@H](c2cc(OC)c(OC)c(OC)c2)C2CCCCC2)c1 [MTQ331, (S)-(R)-3-(4-((1-((5)-16-((25,4R)-4-Hydroxy-2-((4-(4-methylthiazol-5-yl)benzyl)carbamoyl)pyrrolidine-l-carbonyl)-17,17-dimethyl-14-oxo-3,6,9,12-tetraoxa-15-azaoctadecyl)-1H-1,2,3-triazol-4-yl)methoxy)-3-methoxyphenyl)-1-(3-methoxyphenyl)propyl 1-((S)-2-cyclohexyl-2-(3,4,5-trimethoxyphenyl)acetyl)piperidine-2-carboxylate]	59 ± 22	–	–
